Patent publication US8980830B2 (priority 2007, dated 2015)
Read-outs that look alike come from different tables or passages of the source. Bridge positions count the residues as written; N and C are the ends. Square brackets hold non-standard residues; d marks the D form. Ends that are not written are not given here. Peptide text beside a SMILES is read from it. * marks the point of attachment. ξ: configuration not given here. X1 = CC(C)CCC[C@@H](C)[C@H]1CC[C@H]2[C@@H]3CC=C4C[C@@H](OC(=O)CCOCCOCCOCCOCCOCCOCCOCCOCCOCCOCCOCCOCCNC(=O)CSCCC(=O)*)CC[C@]4(C)[C@H]3CC[C@]12C; MCA = alpha-methylhydrocinnamic acid (2-methyl-3-phenylpropanoic acid); Abu(4-SO3H) = N[C@@H](CCS(=O)(=O)O)C(=O)O; Palmitoyl = CCCCCCCCCCCCCCCC(=O)*; PhLac = O=C(O)[C@@H](O)Cc1ccccc1; Aad = N[C@@H](CCCC(=O)O)C(=O)O; ξPhLac = O=C(O)C(O)Cc1ccccc1

Tests used:
[1] = target: GLP-1 Receptor (Homo sapiens, UniProt P43220); assay: Functional assay, cAMP induction (luciferase reporter, HEK293) at GLP-1 receptor; assay type: cell-based
[2] = target: Glucagon Receptor (Homo sapiens, UniProt P47871); assay: cAMP inhibition: antagonism of glucagon-induced cAMP at glucagon receptor; assay type: cell-based; parameters: expressed in transfected cells; host or cells: HEK293; conditions: for IC50 (nM) (cAMP, inhibit 0.2 mM Glucagon): Table 12
Sequence of Glucagon Receptor (P47871 26-477): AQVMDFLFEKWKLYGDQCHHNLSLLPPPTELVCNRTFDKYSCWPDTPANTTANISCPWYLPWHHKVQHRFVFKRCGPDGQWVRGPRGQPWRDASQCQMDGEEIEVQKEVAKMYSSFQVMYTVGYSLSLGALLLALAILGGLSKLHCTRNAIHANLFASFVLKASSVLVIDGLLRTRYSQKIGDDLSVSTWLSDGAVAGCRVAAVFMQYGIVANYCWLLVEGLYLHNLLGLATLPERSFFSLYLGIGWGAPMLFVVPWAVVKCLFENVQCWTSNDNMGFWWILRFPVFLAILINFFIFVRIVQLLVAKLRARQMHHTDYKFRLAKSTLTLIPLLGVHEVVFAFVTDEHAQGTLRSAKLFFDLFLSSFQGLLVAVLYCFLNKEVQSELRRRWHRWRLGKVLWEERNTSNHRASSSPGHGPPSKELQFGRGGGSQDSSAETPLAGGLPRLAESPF

Sequence of GLP-1 Receptor (P43220 24-463): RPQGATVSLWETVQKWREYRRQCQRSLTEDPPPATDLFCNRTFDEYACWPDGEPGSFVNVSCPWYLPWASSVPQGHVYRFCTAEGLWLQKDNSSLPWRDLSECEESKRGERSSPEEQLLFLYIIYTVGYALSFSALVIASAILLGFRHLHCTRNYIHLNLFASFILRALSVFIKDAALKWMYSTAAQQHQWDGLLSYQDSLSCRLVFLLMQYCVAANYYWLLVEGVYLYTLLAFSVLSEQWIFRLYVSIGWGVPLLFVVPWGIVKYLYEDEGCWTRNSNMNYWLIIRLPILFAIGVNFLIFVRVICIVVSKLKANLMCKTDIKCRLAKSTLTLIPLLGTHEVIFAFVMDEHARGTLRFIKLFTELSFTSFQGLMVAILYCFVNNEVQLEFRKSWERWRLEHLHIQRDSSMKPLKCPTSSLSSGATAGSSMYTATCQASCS

`CSCC[C@@H]1NC(=O)[C@H](CC(C)C)NC(=O)[C@H](Cc2c[nH]c3ccccc23)NC(=O)[C@@H](NC(=O)[C@@H](NC(=O)[C@H](Cc2ccccc2)NC(=O)[C@H](CC(=O)O)NC(=O)[C@H](CCC(N)=O)NC(=O)[C@H](C)NC(=O)[C@H](CCCNC(=N)N)NC(=O)[C@H](CCCNC(=N)N)NC(=O)[C@H](CCC(=O)O)NC(=O)[C@H](CC(=O)O)NC(=O)[C@H](CC(C)C)NC(=O)[C@H](Cc2ccc(O)cc2)NC(=O)[C@H](CCCCN)NC(=O)[C@H](CO)NC(=O)[C@H](Cc2ccc(O)cc2)NC(=O)[C@H](CC(=O)O)NC(=O)[C@H](CO)NC(=O)[C@@H](NC(=O)[C@@H](O)Cc2ccccc2)[C@@H](C)O)C(C)C)CCC(=O)NCCCC[C@@H](C(=O)N[C@H](C(N)=O)[C@@H](C)O)NC1=O` (H-[PhLac]TSDYSKYLDERRAQDFVEWLMKT-NH2; lactam 19-23) showed an EC50 ([1]; GLP-1 agonism EC50 (nM), Table 17) of 289 ± 149 nM.
In the case of `CSCC[C@H](NC(=O)[C@H](CC(C)C)NC(=O)[C@H](Cc1c[nH]c2ccccc12)NC(=O)[C@H](CCC(N)=O)NC(=O)[C@@H](NC(=O)[C@H](Cc1ccccc1)NC(=O)[C@H](CC(=O)O)NC(=O)[C@H](CCC(N)=O)NC(=O)[C@H](C)NC(=O)[C@H](CCCNC(=N)N)NC(=O)[C@H](CCCNC(=N)N)NC(=O)[C@@H]1CCC(=O)NCCCC[C@H](NC(=O)[C@H](CO)NC(=O)[C@H](Cc2ccc(O)cc2)NC(=O)[C@H](CC(=O)O)NC(=O)[C@H](CO)NC(=O)[C@@H](NC(=O)[C@@H](N)Cc2ccccc2)[C@@H](C)O)C(=O)N[C@@H](Cc2ccc(O)cc2)C(=O)N[C@@H](CC(C)C)C(=O)N[C@@H](CC(=O)O)C(=O)N1)C(C)C)C(=O)N[C@@H](CC(N)=O)C(=O)N[C@H](C(=O)NCC(=O)N1CCC[C@H]1C(=O)N[C@@H](CO)C(=O)N[C@@H](CO)C(=O)NCC(=O)N[C@@H](C)C(=O)N1CCC[C@H]1C(=O)N1CCC[C@H]1C(=O)N1CCC[C@H]1C(=O)N[C@@H](CO)C(N)=O)[C@@H](C)O` [D9, K12E16(Lactam)] (H-FTSDYSKYLDERRAQDFVQWLMNTGPSSGAPPPS-NH2; lactam 7-11; N-terminus assumed), the EC50 ([1]; GLP-1 (nM), Table 13, GLP-1 agonist activity) is reported as 119 nM, the EC50 ([1]; GLP-1 EC50 (nM), Table 15) is reported as 18 nM and the IC50 ([2]; Table 13, glucagon antagonist activity, read-out: Glu) is reported as 828 nM.
`CSCC[C@H](NC(=O)[C@H](CC(C)C)NC(=O)[C@H](Cc1c[nH]c2ccccc12)NC(=O)[C@H](CCC(N)=O)NC(=O)[C@@H](NC(=O)[C@H](Cc1ccccc1)NC(=O)[C@H](CC(=O)O)NC(=O)[C@@H]1CCCCNC(=O)CC[C@H](NC(=O)[C@H](CC(=O)O)NC(=O)[C@H](CC(C)C)NC(=O)[C@H](Cc2ccc(O)cc2)NC(=O)[C@H](CCCCN)NC(=O)[C@H](CO)NC(=O)[C@H](CCCCNC(=O)CCSCC(=O)NCCOCCOCCOCCOCCOCCOCCOCCOCCOCCOCCOCCOCCC(=O)O[C@H]2CC[C@@]3(C)C(=CC[C@H]4[C@@H]5CC[C@H]([C@H](C)CCCC(C)C)[C@@]5(C)CC[C@@H]43)C2)NC(=O)[C@H](CC(=O)O)NC(=O)[C@H](CO)NC(=O)[C@@H](NC(=O)[C@@H](O)Cc2ccccc2)[C@@H](C)O)C(=O)N[C@@H](CCCNC(=N)N)C(=O)N[C@@H](CCCNC(=N)N)C(=O)N[C@@H](C)C(=O)N1)C(C)C)C(=O)N[C@@H](CC(=O)O)C(=O)N[C@H](C(N)=O)[C@@H](C)O` [K10-chol G(6-29), [PLA6, K10(COCH2CH2S-Chol), E16K20(lactam), D28]G(6-29) amide] (H-[PhLac]TSDK(X1)SKYLDERRAKDFVQWLMDT-NH2; lactam 11-15) showed an EC50 ([1]; GLP-1 agonism EC50 (nM), Table 23, standard deviation in ( )) of 35.3 nM.
`CSCC[C@H](NC(=O)[C@H](CC(C)C)NC(=O)[C@H](Cc1c[nH]c2ccccc12)NC(=O)[C@H](CCC(N)=O)NC(=O)[C@@H](NC(=O)[C@H](Cc1ccccc1)NC(=O)[C@H](CC(=O)O)NC(=O)[C@@H]1CCCCNC(=O)CC[C@H](NC(=O)[C@H](CC(=O)O)NC(=O)[C@H](CC(C)C)NC(=O)[C@H](Cc2ccc(O)cc2)NC(=O)[C@H](CCCCN)NC(=O)[C@H](CO)NC(=O)[C@H](Cc2ccc(O)cc2)NC(=O)[C@H](CC(=O)O)NC(=O)[C@H](CO)NC(=O)[C@@H](NC(=O)[C@H](Cc2ccccc2)OC(=O)[C@@H](NC(=O)CNC(=O)[C@H](CCC(=O)O)NC(=O)[C@H](C)N)[C@@H](C)O)[C@@H](C)O)C(=O)N[C@@H](CCCNC(=N)N)C(=O)N[C@@H](CCCNC(=N)N)C(=O)N[C@@H](C)C(=O)N1)C(C)C)C(=O)N[C@@H](CC(=O)O)C(=O)N[C@H](C(N)=O)[C@@H](C)O` [[A2E3-O-PLA6, D9, E16K20(Lactam), D28] G(2-29)] (H-AEGT[PhLac]TSDYSKYLDERRAKDFVQWLMDT-NH2; lactam 15-19; N-terminus assumed) gave an EC50 ([1]; GLP-1 agonism EC50 (nM), Table 24) of 18 ± 2.14 nM.
In the case of `CCCCCCCCCCCCCCCC(=O)O[C@@H](Cc1ccccc1)C(=O)N[C@H](C(=O)N[C@@H](CO)C(=O)N[C@@H](CC(=O)O)C(=O)N[C@@H](Cc1ccc(O)cc1)C(=O)N[C@@H](CO)C(=O)N[C@@H](CCCCN)C(=O)N[C@@H](Cc1ccc(O)cc1)C(=O)N[C@@H](CC(C)C)C(=O)N[C@@H](CC(=O)O)C(=O)N[C@H]1CCC(=O)NCCCC[C@@H](C(=O)N[C@@H](CC(=O)O)C(=O)N[C@@H](Cc2ccccc2)C(=O)N[C@H](C(=O)N[C@@H](CCC(N)=O)C(=O)N[C@@H](Cc2c[nH]c3ccccc23)C(=O)N[C@@H](CC(C)C)C(=O)N[C@@H](CCSC)C(=O)N[C@@H](CC(=O)O)C(=O)N[C@H](C(N)=O)[C@@H](C)O)C(C)C)NC(=O)[C@H](C)NC(=O)[C@H](CCCNC(=N)N)NC(=O)[C@H](CCCNC(=N)N)NC1=O)[C@@H](C)O` [[C16FA-O-PLA6, E16K20(lactam),D28]G(6-29)] (Palmitoyl-[PhLac]TSDYSKYLDERRAKDFVQWLMDT-NH2; lactam 11-15), the EC50 ([1]; GLP-1 agonism EC50 (nM), Table 22) is reported as 45.7 ± 13.8 nM.
In the case of `CC[C@H](C)[C@H](NC(=O)[C@H](Cc1ccccc1)NC(=O)[C@H](CC(=O)O)NC(=O)[C@H](CCCCN)NC(=O)[C@H](C)NC(=O)[C@H](C)NC(=O)[C@H](CCC(N)=O)NC(=O)[C@@H]1CCC(=O)NCCCC[C@H](NC(=O)[C@H](CO)NC(=O)[C@H](Cc2ccc(O)cc2)NC(=O)[C@H](CC(=O)O)NC(=O)[C@H](CO)NC(=O)[C@@H](NC(=O)C(O)Cc2ccccc2)[C@@H](C)O)C(=O)N[C@@H](Cc2ccc(O)cc2)C(=O)N[C@@H](CC(C)C)C(=O)N[C@@H](CC(=O)O)C(=O)N1)C(=O)N[C@@H](C)C(=O)N[C@@H](Cc1c[nH]c2ccccc12)C(=O)N[C@@H](CC(C)C)C(=O)N[C@@H](CCSC)C(=O)N[C@@H](CC(=O)O)C(=O)N[C@H](C(N)=O)[C@@H](C)O` (some centres unmarked) [[PLA6, K12E16(lactam), GLP(23-32)]G(6-29)] (H-[ξPhLac]TSDYSKYLDEQAAKDFIAWLMDT-NH2; lactam 7-11), the “GLP-1 agonism EC50(nM)” value ([1]; Table 18) is reported as “No agonism”.
For `CSCC[C@H](NC(=O)[C@H](CC(C)C)NC(=O)[C@H](Cc1c[nH]c2ccccc12)NC(=O)[C@H](CCC(N)=O)NC(=O)[C@@H](NC(=O)[C@H](Cc1ccccc1)NC(=O)[C@H](CC(=O)O)NC(=O)[C@H](CCC(N)=O)NC(=O)[C@H](C)NC(=O)[C@H](CCCNC(=N)N)NC(=O)[C@H](CCCNC(=N)N)NC(=O)[C@H](CO)NC(=O)[C@H](CC(=O)O)NC(=O)[C@H](CC(C)C)NC(=O)[C@H](Cc1ccc(O)cc1)NC(=O)[C@H](CCCCN)NC(=O)[C@H](CO)NC(=O)[C@H](Cc1ccc(O)cc1)NC(=O)[C@H](CCS(=O)(=O)O)NC(=O)[C@H](CO)NC(=O)[C@@H](NC(=O)[C@@H](N)Cc1ccccc1)[C@@H](C)O)C(C)C)C(=O)N[C@@H](CC(N)=O)C(=O)N[C@H](C(N)=O)[C@@H](C)O` [[hCys^9(SO3H)]Glucagon(aa6-29)-NH2] (H-FTS[Abu(4-SO3H)]YSKYLDSRRAQDFVQWLMNT-NH2; N-terminus assumed), the “cAMP pA2” value ([2]; Table 9) was 7.16 ± 0.51.
In the case of `CSCC[C@H](NC(=O)[C@H](CC(C)C)NC(=O)[C@H](Cc1c[nH]c2ccccc12)NC(=O)[C@H](CCC(N)=O)NC(=O)[C@@H](NC(=O)[C@H](Cc1ccccc1)NC(=O)[C@H](CC(=O)O)NC(=O)[C@H](CCC(N)=O)NC(=O)[C@H](C)NC(=O)[C@H](CCCNC(=N)N)NC(=O)[C@H](CCCNC(=N)N)NC(=O)[C@H](CO)NC(=O)[C@H](CC(=O)O)NC(=O)[C@H](CC(C)C)NC(=O)[C@H](Cc1ccc(O)cc1)NC(=O)[C@H](CCCCN)NC(=O)[C@H](CO)NC(=O)[C@H](Cc1ccc(O)cc1)NC(=O)[C@H](CCCC(=O)O)NC(=O)[C@H](CO)NC(=O)[C@@H](NC(=O)[C@@H](N)Cc1ccccc1)[C@@H](C)O)C(C)C)C(=O)N[C@@H](CC(N)=O)C(=O)N[C@H](C(N)=O)[C@@H](C)O` [[hGlu^9]Glucagon(aa6-29)-NH2] (H-FTS[Aad]YSKYLDSRRAQDFVQWLMNT-NH2; N-terminus assumed), the “cAMP pA2” value ([2]; Table 9) is reported as 6.27 ± 0.11.
“FTSDYSKYLDSRRAQDFVQWLMNT-NH2 [Glucagon(aa6-29)-NH2]” was tested, and the “cAMP pA2” value ([2]; Table 9) was 6.94 ± 0.63.
“FTSEYSKYLDERRAQDFVQWLMNTGPSSGAPPPS-NH2 [E9, K12, E16]” gave an IC50 ([2]; Glucagon antagonism IC50 (nM, inhibit 0.2-0.8 nM glucagon), Table 16, combined results of three assays) of 762 ± 127 nM.
“FTSKYSKYLDSRRAQDFVQWLMNT-NH2 [[Lys^9]Glucagon(aa6-29)-NH2]” was tested, and the “cAMP pA2” value [2] was 6.58 ± 0.60.
With “[MCA^6, E^9, C^24(20kDaPEG)]Glucagon(aa6-29)-NH2 ([MCA]TSEYSKYLDSRRAQDFVC(PEG 20 kDa)WLMNT-NH2)” the “IC50 (nM) (cAMP, inhibit 0.2 mM Glucagon)” value [2] was “no antagonism”.
In the case of “[PLA6, E9,E16K20(Lactam), C24(20 kDa)]G(6-29) ([PhLac]TSEYSKYLDERRAKDFVC(PEG 20 kDa)WLMNT; lactam 11-15)”, the “Glucagon antagonism IC50(nM) (inhibit 0.2-0.8 nM glucagon)” value [2] is reported as “Not detect”.
“[PLA6, K12E16(Lactam), D28,CEX-C40(20 kDa)]G(6-40) ([PhLac]TSDYSKYLDERRAQDFVQWLMDTGPSSGAPPPSC(PEG 20 kDa); lactam 7-11)” was tested, and the “Glucagon antagonism IC50(nM) (inhibit 0.2-0.8 nM glucagon)” value [2] was “Not antagonist (n = 1)”.
“[PLA^6, C^8(1.2kDaPEG), E^9]Glucagon(aa6-29)-NH2 ([PhLac]TC(PEG 1.2 kDa)EYSKYLDSRRAQDFVQWLMNT-NH2)” was tested, and the “IC50 (nM) (cAMP, inhibit 0.2 mM Glucagon)” value [2] was “no antagonism”.
